Entries after “also recorded” stand apart in the source; their conditions may differ. Like-named read-outs stand apart in the source and are kept apart here.
Legend:
Format in all cases: cell-based
[1] = system: NRF2 activity in H1299-NQO1-YFP cells; experiment: NRF2 activity reporter IC50 in H1299-NQO1-YFP cells vs NRF2 pathway activators (IncuCyte, YFP/mCherry)
Description: Readings were taken every 2 hours for at least 24 hours. […] Readings were also taken every 2 hours for 96 hours in and IncuCyte S3.
YFP total intensity (correlating to NRF2 activity) was normalized to NLS-mCherry (cell number) total intensity to give a ratio (YFP/mCherry). Ratios at one time point at least 24 hours post compounds were added were used. These numbers were then plotted in Graphpad Prism to calculate IC50s. […] From three biological replicates, percent confluence was used for proliferation assays to calculate IC50s, calculations performed using Graphpad Prism.

[2] = system: NRF2 mRNA and NRF2 target gene mRNA; experiment: RT-qPCR of NRF2 mRNA and NRF2 downstream targets in KYSE70 cells; conditions: 24 or 48 hours, PYR 10 μM, analogs 1 μM, MTX and PEM 0.1 μM
Description: qRT-PCR: Total RNA was extracted using PureLink RNA kit following the manufacturers protocol. Primers for qPCR were designed using the National Center for Biotechnology Information's (NCBI) Primer-BLAST platform. For primer sequences, see Table 2. RNA was quantified using a Nanodrop One (Thermo, Waltham, Mass.), and the reverse transcription reaction was performed using 2 μg of RNA with the iSCRIPT Clear kit with DNAse (Biorad, 170-8891). For the qRT-PCR, PowerUP SYBR Green (Thermo, A25741) was used, and data were analyzed on an AB QuantStudio 6 Flex Real Time PCR machine (Applied Biosystems, Foster City, Calif.). ΔCT values were normalized to housekeeping gene RPL13a and then normalized to DMSO for final ΔΔCT value.

[3] = system: NRF2 protein; experiment: Western blot analysis of NRF2 protein abundance and downstream targets in cell lines; conditions: for NRF2 protein abundance: western blot, 24-48 hours, PYR 10 μM, analogs 1 μM (104 in HEK293T 10 μM), MTX and PEM 0.1 μM, CG 10 μM
Description: Western Blots: KYSE70, HEK293T cells were plated and 24 hours later treated with compounds (see figure legends for details). Either at 24 or 48 hours later, cells were scrapped in RIPA buffer (0.2% deoxycholate, 0.1% SDS, 1% NP40, 150 mM NaCl, 50 mM Tris pH 7.4, 2 mM EDTA) supplemented with protease and phosphatase inhibitors, cleared at 14000×g for 15 minutes at 4° C., and supernatants were quantified by BCA assay (Pierce, 23225). Protein samples (20 μg) were prepared with 1×LDS buffer with 100 mM DTT, ran on NuPAGE 4-12% Bis-tris gels, and transferred onto a […] nitrocellulose membrane (Thermo, 88018). All blots were blocked in 5% milk in TBST for 30 minutes. After incubation of the primary antibody overnight at 4° C. and washed three times with 1×TBST, blots were incubated with LI-COR secondary antibodies for 1-2 hours, washed in 1×TBST thrice, and then imaged via a LI-COR Odyssey instrument (Li-COR, Lincoln, Nebr.).

[4] = Table 1, activator CDDO 0.1 μM, H1299-NQO1-YFP cells, read-out: CDDO 0.1 μM IC50 μM ± SEM
[5] = Table 1, activator SULF 2 μM, H1299-NQO1-YFP cells, read-out: SULF 2 μM IC50 μM ± SEM
[6] = Table 1 and text, average over activators CDDO, PRL295, SULF, H1299-NQO1-YFP cells, read-out: Avg IC50
[7] = Table 6 NRF2 inhibitors, read-out: Avg IC50
[8] = read-out: PRL295 5 μM IC50 AM ± SEM, Table 1, activator PRL295 5 μM, H1299-NQO1-YFP cells

SMILES	IC50 [1, 4]	IC50 [1, 5]	IC50 [1, 6]	IC50 [1, 7]	IC50 [1, 8]	other results
CC1(C)N=C(N)N=C(N)N1c1ccc(Cl)cc1 [CG, reference compound]						IC50 ([1]; Table 3, activator CDDO 100 nM, H1299-NQO1-YFP cells, read-out: CDDO 100 nM IC50 μM ± SEM): 1.82 ± 0.085 µM; IC50 ([1]; Table 3, activator SULF 2 μM, H1299-NQO1-YFP cells, read-out: SULF 2 μM IC50 μM ± SEM): 1.5 ± 0.0466 µM; IC50 ([1]; Table 3, average over activators, H1299-NQO1-YFP cells, read-out: Avg IC50): 1.7 µM; IC50 ([1]; read-out: PRL295 5 μM IC50 μM ± SEM, Table 3, activator PRL295 5 μM, H1299-NQO1-YFP cells): 1.57 ± 0.008 µM; NRF2 mRNA and NRF2 target gene mRNA [2]: decreased; NRF2 protein abundance [3]: decreased
CCc1nc(N)nc(N)c1-c1cccc(Cl)c1 [WCDD104, 5-(3-chlorophenyl)-6-ethylpyrimidine-2,4-diamine]	0.103 ± 0.001 µM	0.129 ± 0.003 µM	0.1 µM	0.098 µM	0.061 ± 0.003 µM	IC50 ([1]; unit inferred, read-out: IC50): 0.1 µM; NRF2 protein on co-treatment with Bortezomib ([3]; BORT 0.04 μM co-treatment, HEK293T, H1299): demonstrated a proteasomal requirement for activity; NRF2 protein abundance [3]: inhibition of NRF2 protein abundance and downstream target gene expression; also recorded: decrease NRF2 protein abundance
CCc1nc(N)nc(N)c1-c1ccc(S(=O)(=O)C2CC3CC3C2)cc1 (stereo not shown) [WCDD108, 5-(4-(bicyclo[3.1.0]hexan-3-ylsulfonyl)phenyl)-6-ethylpyrimidine-2,4-diamine]	16.9 ± 0.208 µM	12.56 ± 0.103 µM	14.9 µM	14.9 µM	15.2 ± 1.29 µM	
CCc1nc(N)nc(N)c1-c1cc(Cl)cc(Cl)c1 [WCDD114, 5-(3,5-dichlorophenyl)-6-ethylpyrimidine-2,4-diamine]	0.134 ± 0.014 µM	0.111 ± 0.009 µM	0.1 µM	0.108 µM	0.079 ± 0.002 µM	IC50 ([1]; unit inferred, read-out: IC50): 0.1 µM; NRF2 protein abundance [3]: decrease NRF2 protein abundance
CCc1nc(N)nc(N)c1-c1ccc2c(c1)CCC2 [WCDD119, 5-(2,3-dihydro-1H-inden-5-yl)-6-ethylpyrimidine-2,4-diamine]	0.614 ± 0.021 µM	0.557 ± 0.03 µM	0.5 µM	0.57 µM	0.552 ± 0.003 µM	
CCc1nc(N)nc(N)c1-c1cc(Cl)ccc1Cl [WCDD120, 5-(2,5-dichlorophenyl)-6-ethylpyrimidine-2,4-diamine]			> 10 µM	> 10 µM		
CCc1nc(N)nc(N)c1-c1cccc(Cl)c1F [WCDD121, 5-(3-chloro-2-fluorophenyl)-6-ethylpyrimidine-2,4-diamine]			> 5 µM	> 5 µM		
CCc1ncnc(N)c1-c1cccc(Cl)c1 [WCDD125, 5-(3-chlorophenyl)-6-ethylpyrimidin-4-amine]			> 20 µM	> 20 µM		
COCCOCCc1nc(N)nc(N)c1-c1cccc(Cl)c1 [WCDD126, 5-(3-chlorophenyl)-6-(2-(2-methoxyethoxy)ethyl)pyrimidine-2,4-diamine]	0.461 ± 0.017 µM	0.397 ± 0.011 µM	0.514 µM	0.514 µM	0.683 ± 0.002 µM	
Nc1nc(N)c(-c2cccc(Cl)c2)c(CC2CCC2)n1 [WCDD127, 5-(3-chlorophenyl)-6-(cyclobutylmethyl)pyrimidine-2,4-diamine]	0.469 ± 0.002 µM	0.454 ± 0.006 µM	0.456 µM	0.456 µM	0.444 ± 0.002 µM	
C#CCCCc1nc(N)nc(N)c1-c1cccc(Cl)c1 [WCDD128, 5-(3-chlorophenyl)-6-(pent-4-yn-1-yl)pyrirnidine-2,4-diamine]	0.244 ± 0.006 µM	0.163 ± 0.002 µM	0.248 µM	0.248 µM	0.334 ± 0.004 µM	
CCc1nc(NC)nc(NC)c1-c1ccc(Cl)cc1 [WCDD133, 5-(4-chlorophenyl)-6-ethyl-N2,N4-dimethylpyrimidine-2,4-diamine]			> 20 µM			
CCc1nc(N)nc(NC)c1-c1ccc(Cl)cc1 [WCDD133a, 5-(4-chlorophenyl)-6-ethyl-N4-methylpyrimidine-2,4-diamine]			> 20 µM			
Nc1ncc(-c2cccc(Cl)c2)c(N)n1 [WCDD134, 5-(3-chlorophenyl)pyrimidine-2,4-diamine]	1.84 ± 0.196 µM	1.88 ± 0.024 µM	1.43 µM	1.43 µM	1.84 ± 0.196 µM	
NCCCc1nc(N)nc(N)c1-c1cccc(C(F)(F)F)c1 [WCDD135, 6-(3-aminopropyl)-5-(3-(trifluoromethyl)phenyl)pyrimidine-2,4-diamine]			> 20 µM			
C#CCCC1(CCC(=O)NCCCc2nc(N)nc(N)c2-c2cccc(C(F)(F)F)c2)N=N1 [WCDD136, 3-(3-(but-3-yn-1-yl)-3H-diazirin-3-yl)-N-(3-(2,6-diamino-5-(3-(trifluoromethyl)phenyl)pyrimidin-4-yl)propyl)propanamide]			~0.15 µM		0.153 ± 0.002 µM	
Nc1nc(N)c(-c2cccc(C(F)(F)F)c2)c(CCCNC(=O)CCCC[C@H]2SCC3NC(O)NC32)n1 (stereo partly drawn) [WCDD137, N-(3-(2,6-diamino-5-(3-(trifluoromethyl)phenyl)pyrimidin-4-yl)propyl)-5-((4R)-2-hydroxyhexahydro-1H-thieno[3,4-d]imidazol-4-yl)pentanamide]			4.84 µM		4.84 ± 0.284 µM	
C=CCCc1nc(N)nc(N)c1-c1cccc(C(F)(F)F)c1 [WCDD139, 6-(but-3-en-1-yl)-5-(3-(trifluoromethyl)phenyl)pyrimidine-2,4-diamine]	0.206 ± 0.0014 µM	0.097 ± 0.003 µM	0.14 µM	0.14 µM	0.106 ± 0.003 µM	

Continued, in another order:

IC50 [1, 4]	IC50 [1, 5]	IC50 [1, 6]	IC50 [1, 7]	IC50 [1, 8]	SMILES	other results
16.9 ± 2.56 µM	12.5 ± 0.798 µM	13.1 µM	13.1 µM	9.99 ± 0.0737 µM	Nc1ncc(-c2ccc(Cl)cc2)c(N)n1 [WCDD103, 5-(4-chlorophenyl)pyrimidine-2,4-diamine]	
5.12 ± 0.074 µM	3.279 ± 0.006 µM	4.04 µM	4.04 µM	3.74 ± 0.499 µM	CCc1nc(N)nc(N)c1-c1ccc(C(C)(F)F)cc1 [WCDD105, 5-(4-(1,1-difluoroethyl)phenyl)-6-ethylpyrimidine-2,4-diamine]	
		> 20 µM	> 20 µM		CCc1nc(N)nc(N)c1-c1ccc(S(=O)(=O)C2CCCC2)cc1 [WCDD106, 5-(4-(cyclopentylsulfonyl)phenyl)-6-ethylpyrimidine-2,4-diamine]	
		> 20 µM	> 20 µM		CCc1nc(N)nc(N)c1-c1ccc(S(=O)(=O)N2CC3(COC3)C2)cc1 [WCDD107, 5-(4-((2-oxa-6-azaspiro[3.3]heptan-6-yl)sulfonyl)phenyl)-6-ethylpyrimidine-2,4-diamine]	
		> 20 µM	> 20 µM		CCc1nc(N)nc(N)c1-c1ccc(N2CC3CC3C2)cc1 (stereo not shown) [WCDD110, 5-(4-(3-azabicyclo[3.1.0]hexan-3-yl)phenyl)-6-ethylpyrimidine-2,4-diamine]	
1.1 ± 0.016 µM	0.91 ± 0.01 µM	1.18 µM	1.18 µM	1.51 ± 0.0329 µM	CCc1nc(N)nc(N)c1-c1ccccc1 [WCDD111, 6-ethyl-5-phenylpyrimidine-2,4-diamine]	
19.8 ± 0.338 µM	10.92 ± 0.0655 µM	13.9 µM	13.9 µM	10.8 ± 0.62 µM	CCC1=NC(N)=NC(=O)C1c1ccc(Cl)cc1 (stereo not shown) [WCDD112, 2-amino-5-(4-chlorophenyl)-6-ethylpyrimidin-4(5H)-one]	
		> 5 µM	> 5 µM		CCc1nc(N)nc(N)c1-c1cccc(N2CCCC2)c1 [WCDD122, 6-ethyl-5-(3-(pyrrolidin-1-yl)phenyl)pyrimidine-2,4-diamine]	

Source: patent US20220289686A1, “COMPOSITIONS OF NRF2 INHIBITING AGENTS AND METHODS OF USE THEREOF” (Washington University, priority 2021, published 2022)
